The text below walks through data of patent US20260306502A1, “MITOCHONDRIAL UNCOUPLERS FOR TREATMENT OF METABOLIC DISEASES AND CANCER” (Mito Biopharma, LLC, priority 2022, published 2026).

Read-outs that look alike come from different tables or passages of the source. A value given as a limit tells only on which side of the number the result lay.

In series [1] the test system is C2C12 cells. The series is described as follows: Mitochondrial uncoupling activity by oxygen consumption rate (OCR) assay, Seahorse, in presence of oligomycin. It is filed as cell-based, mouse. The following applies: for minimal effective concentration: Mus musculus, C2C12. On the procedure:
By definition, mitochondrial uncoupling is the decoupling of mitochondrial electron transport chain activity (mitochondrial oxidation) from ATP synthesis by mitochondrial ATP synthase. Technically, mitochondrial uncoupling activity is defined by the ability of a chemical compound to induce oxygen consumption of cells or isolated mitochondria in the presence of a mitochondrial ATP synthase inhibitor such as oligomycin. Accordingly, mitochondrial uncoupling activity was determined by oxygen consumption rate assay with a Seahorse XF96 or a Seahorse XF24 instrument following the vendor's instruction, using mouse myoblast C2C12 cells grown in a medium containing 10% fetal bovine serum. OCR was measured stepwise under the following conditions: first under normal growth conditions; then. OCR was measured after oligomycin was added to reach a final concentration of 2.5 μM); then OCR was measured after the compound was further added at varying concentrations. Finally, rotenone and antimycin A were added to confirm that the measurement was mitochondrial oxygen consumption (rotenone and […] mitochondrial electron transport chain inhibitors).
COCR-min the minimal concentration required for each compound to induce OCR in the presence of oligomycin, of disclosed compounds, was also determined by varying the final concentration of the compound added to the Seahorse OCR analysis experiment as described above (FIG. 2, varying testing compound concentration). Table 8 summarizes the mitochondrial uncoupling activity of disclosed compounds, as represented by COCR-min.

Series [2] in a line: PO pharmacokinetic study, oral exposure (Example B3). It is filed as in vivo. The following applies: blood, po; for AUC at 24 h: 10 mg/kg gavage. As for the experimental part: The blood concentration of the compound was then determined at 0 (pre-dosing), 5 min, 15 min, 30 min, 1 hr, 2 hr, 4 hr, 8 hr, 24 hr time points by LC-MS/MS analysis (See Tables 1 and 2, vide supra).

[3] abbreviates: in the presence of oligomycin 2.5 μM, read-out: COCR-min: minimal concentration increasing OCR in the presence of oligomycin.
Where [4] appears, read: minimal concentration leading to OCR increase, read-out: Activity (Cmin-OCR).

Regarding `COCCOCc1cc(Cl)cc(C(=O)Nc2nc3ccc(C(F)(F)F)cc3s2)c1O` [Compound 2, 5-chloro-2-hydroxy-3-((2-methoxyethoxy)methyl)-N-(6-(trifluoromethyl)benzo[d]thiazol-2-yl)benzamide], in series [1] (setting [3]), the minimal effective concentration was < 5 µM. Besides, the AUC(0-t) (in general, the area under the concentration-time curve up to a stated or last time point) at 24 h in series [2] (10 mg/kg) turned out to be 485000 ng·h/mL. The AUC – broadly, concentration integrated over time – at 24 h in series [2] is > 120000 ng·h/mL.

In the case of `COCCN(C)Cc1cc(Cl)cc(C(=O)Nc2nc3ccc(C(F)(F)F)cc3s2)c1O` [Compound 3, 5-chloro-2-hydroxy-3-(((2-methoxyethyl)(methyl)amino)methyl)-N-(6-(trifluoromethyl)benzo[d]thiazol-2-yl)benzamide], the minimal effective concentration in series [1] (setting [3]) is < 5 µM. The molecule also came in with an AUC at 24 h in series [2] of 10000 to 30000 ng·h/mL.

Consider `COCCOCc1cc(Cl)cc(C(=O)Nc2ccc(C(F)(F)F)cc2Cl)c1O` [Compound 4, 5-chloro-N-(2-chloro-4-(trifluoromethyl)phenyl)-2-hydroxy-3-((2-methoxyethoxy)methyl)benzamide], for which the minimal effective concentration in series [1] (setting [3]) was < 5 µM. This molecule had an AUC at 24 h in series [2] of 30000 to 60000 ng·h/mL. Regarding `COCc1cc(Cl)cc(C(=O)Nc2nc3ccc(C(F)(F)F)cc3s2)c1O` [Compound 9, 5-chloro-2-hydroxy-3-(methoxymethyl)-N-(6-(trifluoromethyl)benzo[d]thiazol-2-yl)benzamide], the minimal effective concentration in series [1] (setting [3]) is < 5 µM. Besides, in series [2] (10 mg/kg), the AUC(0-t) at 24 h was 180000 ng·h/mL. Besides, in series [2], the AUC at 24 h is > 120000 ng·h/mL.

`O=C(Nc1nc2ccc(C(F)(F)F)cc2s1)c1cc(Cl)cc(C2CCOC2)c1O` (stereo not drawn) [Compound 14, 5-chloro-2-hydroxy-3-(tetrahydrofuran-3-yl)-N-(6-(trifluoromethyl)benzo[d]thiazol-2-yl)benzamide]: the minimal effective concentration in series [1] (setting [3]) was < 5 µM. Besides, in series [2], the AUC at 24 h is > 120000 ng·h/mL.

For `Cl.O=C(Nc1nc2ccc(C(F)(F)F)cc2s1)c1cc(Cl)cc(CCN2CCOCC2)c1O` [Compound 17, 5-chloro-2-hydroxy-3-(2-morpholinoethyl)-N-(6-(trifluoromethyl)benzo[d]thiazol-2-yl)benzamide], the minimal effective concentration in series [1] (setting [3]) is < 5 µM. Also, the AUC at 24 h in series [2] lay within 10000 to 30000 ng·h/mL. Taken in the same sequence, the figures for `O=C(Nc1nc2ccc(C(F)(F)F)cc2s1)c1cc(Cl)cc(CN2CCCCC2)c1O` [Compound 26, 5-chloro-2-hydroxy-3-(piperidin-1-ylmethyl)-N-(6-(trifluoromethyl)benzo[d]thiazol-2-yl)benzamide] were < 5 µM and 10000 to 30000 ng·h/mL. In the case of `O=C(Nc1nc2ccc(C(F)(F)F)cc2s1)c1cc(Cl)cc(CN2CCC2)c1O` [Compound 27, 3-(azetidin-1-ylmethyl)-5-chloro-2-hydroxy-N-(6-(trifluoromethyl)benzo[d]thiazol-2-yl)benzamide], the minimal effective concentration in series [1] (setting [3]) was < 5 µM. This molecule gave an AUC at 24 h in series [2] of 30000 to 60000 ng·h/mL. With `O=C(Nc1nc2ccc(C(F)(F)F)cc2s1)c1cc(Cl)ccc1O` [Compound 31 in WO 2016/081599, reference compound], in series [2] (20 mg/kg), the AUC(0-t) at 24 h was ~2400 ng·h/mL. `COC1CCN(Cc2cc(Cl)cc(C(=O)Nc3nc4ccc(C(F)(F)F)cc4s3)c2O)C1` (stereo not drawn) [Compound 32, 5-chloro-2-hydroxy-3-((3-methoxypyrrolidin-1-yl)methyl)-N-(6-(trifluoromethyl)benzo[d]thiazol-2-yl)benzamide]: the minimal effective concentration in series [1] (setting [3]) was < 5 µM. The same molecule yielded an AUC at 24 h in series [2] of 30000 to 60000 ng·h/mL.

As for `COCCOCc1cc(C(F)(F)F)cc2sc(NC(=O)c3cc(Cl)cc(CN4CCOCC4)c3O)nc12` [Compound 65, 5-chloro-2-hydroxy-N-(4-((2-methoxyethoxy)methyl)-6-(trifluoromethyl)benzo[d]thiazol-2-yl)-3-(morpholinomethyl)benzamide], the minimal effective concentration in series [1] (setting [3]) was < 5 µM. The same molecule registered an AUC at 24 h in series [2] of 60000 to 120000 ng·h/mL. With `COCCOCc1cc(C(F)(F)F)cc2sc(NC(=O)c3cc(Cl)cc(CN4CCCCC4)c3O)nc12` [Compound 66, 5-chloro-2-hydroxy-N-(4-((2-methoxyethoxy)methyl)-6-(trifluoromethyl)benzo[d]thiazol-2-yl)-3-(piperidin-1-ylmethyl)benzamide], the minimal effective concentration in series [1] (setting [3]) is < 5 µM. The molecule also yielded an AUC at 24 h in series [2] of 30000 to 60000 ng·h/mL. As to `COCCN(CCOC)Cc1cc(Cl)cc(C(=O)Nc2nc3c(COC)cc(C(F)(F)F)cc3s2)c1O` [Compound 69, 3-((bis(2-methoxyethyl)amino)methyl)-5-chloro-2-hydroxy-N-(4-(methoxymethyl)-6-(trifluoromethyl)benzo[d]thiazol-2-yl)benzamide], in series [1] (setting [3]), the minimal effective concentration was < 5 µM. Moreover, the “effect on oxygen consumption rate (OCR)” value in series [1] (in words) is given as “increase OCR in the presence of oligomycin”. For the same molecule, the AUC at 24 h in series [2] fell in the range of 10000 to 30000 ng·h/mL. Take `O=C(Nc1nc2ccc(C(F)(F)F)cc2s1)c1cc(Cl)cc(CN2CCCC(F)(F)C2)c1O` [Example 59, 5-chloro-3-((3,3-difluoropiperidin-1-yl)methyl)-2-hydroxy-N-(6-(trifluoromethyl)benzo[d]thiazol-2-yl)benzamide]: in series [1] (setting [3]), the minimal effective concentration was < 5 µM.

Turning to `O=C(Nc1nc2ccc(C(F)(F)F)cc2s1)c1cc(Cl)cc(CN2CCC(F)CC2)c1O` [Example 60, 5-chloro-3-((4-fluoropiperidin-1-yl)methyl)-2-hydroxy-N-(6-(trifluoromethyl)benzo[d]thiazol-2-yl)benzamide], the minimal effective concentration in series [1] (setting [3]) was < 5 µM. Still for that read-out and setting: in the case of `O=C(Nc1nc2ccc(C(F)(F)F)cc2s1)c1cc(Cl)cc(CN2CCCC(C(F)(F)F)C2)c1O` (stereo not drawn) [Example 61, 5-chloro-2-hydroxy-N-(6-(trifluoromethyl)benzo[d]thiazol-2-yl)-3-((3-(trifluoromethyl)piperidin-1-yl)methyl)benzamide] it was < 5 µM; in that of `O=C(Nc1nc2ccc(C(F)(F)F)cc2s1)c1cc(Cl)cc(CN2CCC(F)(F)CC2)c1O` [Example 62, 5-chloro-3-((4,4-difluoropiperidin-1-yl)methyl)-2-hydroxy-N-(6-(trifluoromethyl)benzo[d]thiazol-2-yl)benzamide], < 5 µM.

As for `C[C@@H]1CN(Cc2cc(Cl)cc(C(=O)Nc3nc4c(CNS(C)(=O)=O)cc(C(F)(F)F)cc4s3)c2O)C[C@H](C)O1` [Example 72, 5-chloro-3-((cis-2,6-dimethylmorpholino)methyl)-2-hydroxy-N-(4-(methylsulfonamidomethyl)-6-(trifluoromethyl)benzo[d]thiazol-2-yl)benzamide], the minimal effective concentration in series [1] (setting [3]) is < 5 µM. On the same count and under the same terms, the same measure for `COCCN(CCOC)Cc1cc(Cl)cc(C(=O)Nc2nc3c(CNS(C)(=O)=O)cc(C(F)(F)F)cc3s2)c1O` [Example 74, 3-((bis(2-methoxyethyl)amino)methyl)-5-chloro-2-hydroxy-N-(4-(methylsulfonamidomethyl)-6-(trifluoromethyl)benzo[d]thiazol-2-yl)benzamide]: < 5 µM. Still for that read-out and setting: the same measure for `C[C@@H]1CN(Cc2cc(Cl)cc(C(=O)Nc3nc4c(CN5CCN(C)CC5)cc(C(F)(F)F)cc4s3)c2O)C[C@H](C)O1` [Example 79, 5-chloro-3-((cis-2,6-dimethylmorpholino)methyl)-2-hydroxy-N-(4-((4-methylpiperazin-1-yl)methyl)-6-(trifluoromethyl)benzo[d]thiazol-2-yl)benzamide]: < 5 µM. Same read-out and setting: the same measure for `CCC(=O)NCc1cc(C(F)(F)F)cc2sc(NC(=O)c3cc(Cl)cc(C)c3O)nc12` [Example 90, 5-chloro-2-hydroxy-3-methyl-N-(4-(propionamidomethyl)-6-(trifluoromethyl)benzo[d]thiazol-2-yl)benzamide]: 5 to 10 µM; for `Cc1cc(Cl)cc(C(=O)Nc2nc3c(C4CCN(C)CC4)cc(C(F)(F)F)cc3s2)c1O` [Example 94, 5-chloro-2-hydroxy-3-methyl-N-(4-(1-methylpiperidin-4-yl)-6-(trifluoromethyl)benzo[d]thiazol-2-yl)benzamide]: < 5 µM. Consider `Cc1cc(Cl)cc(C(=O)Nc2nc3c(CN4CCOCC4)cc(C(F)(F)F)cc3s2)c1O` [Example 95, 5-chloro-2-hydroxy-3-methyl-N-(4-(morpholinomethyl)-6-(trifluoro-methyl)benzo[d]thiazol-2-yl)benzamide], for which the minimal effective concentration in series [1] (setting [3]) was < 5 µM.

As for `Cc1cc(Cl)cc(C(=O)Nc2nc3c(CN(C)C)cc(C(F)(F)F)cc3s2)c1O` [Example 96, 5-chloro-N-(4-((dimethylamino)methyl)-6-(trifluoromethyl)benzo[d]thiazol-2-yl)-2-hydroxy-3-methylbenzamide], the minimal effective concentration in series [1] (setting [3]) is < 5 µM. On the same count and under the same terms, the same measure for `O=C(Nc1ccc(C(F)(F)F)nc1)c1cc(Cl)cc(C2CCOC2)c1O` (stereo not drawn) [Example 98, 5-chloro-2-hydroxy-3-(tetrahydrofuran-3-yl)-N-(6-(trifluoromethyl)pyridin-3-yl)benzamide]: > 10 µM. On to `COCOCc1cc(Cl)cc(C(=O)Nc2nc3ccc(C(F)(F)F)cc3s2)c1O` [drawing 255], for which the minimal effective concentration in series [1] (setting [4]) stood at 2.5 µM.

Turning to `COCCOCc1cc(Cl)cc(C(=O)Nc2nc3ccc(C(F)(F)F)cc3s2)c1O` [drawing 256], the minimal effective concentration in series [1] (setting [4]) worked out at 2.5 µM.
